The source of these data is patent US20260022143A1, “Cyclic Peptide Inhibitors of IL-23” (JANSSEN PHARMACEUTICA NV, priority 2022, published 2026).

Starred links: 1 amine or outer side, 2 acyl side, 3 side chain; linkers in the order of their positions; H or OH if unused. Positions of bridges follow the written chain, without caps; N, C: chain ends. Non-standard residues stand in square brackets, D forms with d. Residues, ends and D or L forms follow the SMILES beside them. Groups on a side chain read outwards from the residue. ξ: configuration not given here. *: point of attachment. Trp(7-(3-AcNH-Ph)) = CC(=O)Nc1cccc(-c2cccc3c(C[C@H](N)C(=O)O)c[nH]c23)c1; Me3N+(CH2)2O(CH2)2O(CH2)2CO = C[N+](C)(C)CCOCCOCCC(=O)*; CH2CH2OCH2CH2OCH2CH2NMe3+ = C[N+](C)(C)CCOCCOCC*; Trp(7-Me) = Cc1cccc2c(C[C@H](N)C(=O)O)c[nH]c12; Hexanoyl(6-NMe3+) = C[N+](C)(C)CCCCCC(=O)*; X63 = C[N+]1(C)CCC(N[*:1])(C(=O)[*:2])CC1; γGlu = O=C(O)[C@H](CCC(=O)[*:2])N[*:1]; 2Nal = N[C@@H](Cc1ccc2ccccc2c1)C(=O)O; AEF = NCCOc1ccc(C[C@H](N)C(=O)O)cc1; NMe3Pal = CN[C@@H](Cc1cccnc1)C(=O)O; 3Pal = N[C@@H](Cc1cccnc1)C(=O)O; Lys(Me) = CNCCCC[C@H](N)C(=O)O; NMeK = CN[C@@H](CCCCN)C(=O)O; Pen = CC(C)(S)[C@H](N)C(=O)O; Lauroyl = CCCCCCCCCCCC(=O)*; ξLys(Me) = CNCCCCC(N)C(=O)O; X18 = C[N+]1(C)CCOC(C*)C1; Thp = NC1(C(=O)O)CCOCC1; X3 = C[N+](C)(C)CCCCC*; AEEA = NCCOCCOCC(=O)O; Me2NCH2CH2 = CN(C)CC*; Sar = CNCC(=O)O

In data set [1] the target is T1, IL-23R (Homo sapiens, UniProt Q5VWK5).
T1 construct: host or cells: HEK293
T1 sequence (Q5VWK5 24-629): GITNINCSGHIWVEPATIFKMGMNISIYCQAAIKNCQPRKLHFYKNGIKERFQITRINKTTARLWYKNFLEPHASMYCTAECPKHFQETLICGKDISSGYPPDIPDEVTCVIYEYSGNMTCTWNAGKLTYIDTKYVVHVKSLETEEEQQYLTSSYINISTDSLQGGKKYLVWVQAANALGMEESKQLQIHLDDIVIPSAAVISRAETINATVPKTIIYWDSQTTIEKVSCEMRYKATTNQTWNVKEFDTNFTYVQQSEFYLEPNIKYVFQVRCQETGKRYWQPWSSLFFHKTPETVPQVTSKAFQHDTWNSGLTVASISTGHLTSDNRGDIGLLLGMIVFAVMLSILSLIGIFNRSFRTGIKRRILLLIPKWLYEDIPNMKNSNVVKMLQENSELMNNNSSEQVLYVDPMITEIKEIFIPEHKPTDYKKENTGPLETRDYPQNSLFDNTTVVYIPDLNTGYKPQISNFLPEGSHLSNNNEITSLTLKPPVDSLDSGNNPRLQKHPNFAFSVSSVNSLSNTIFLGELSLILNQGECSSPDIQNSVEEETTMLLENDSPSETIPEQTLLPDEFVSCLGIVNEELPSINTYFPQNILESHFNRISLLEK
The data set can be described thus: IL23R Reporter Assay. The format is cell-based. As to conditions: HEK293 cells containing IL-23R, IL-12RP1 and STAT-inducible firefly luciferase reporter; 10 ng/mL IL-23 (EC90); 5 h at 37° C.; read-out: IL23R Reporter Assay.

Data set [2] can be described thus: Exposed Polar Surface Area (EPSA). The format is physicochemical. As to conditions: SFC on Chirex 3014 column; sample 1 mM DMSO stock; read-out: EPSA. The procedure, abridged:
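Retention-based polarity: supercritical CO2 with 20 mM ammonium formate in MeOH (5–60%, 20%/min), Chirex 3014 column, 35 °C. Calibrated against 8 standards to give EPSA (Å^2); each sample measured twice.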

As to `CC(=O)NCCCC[C@@H]1NC(=O)[C@H](Cc2c[nH]c3c(-c4cccc(NC(C)=O)c4)cccc23)NC(=O)[C@H]([C@@H](C)O)NC(=O)[C@H](CC(N)=O)NC(=O)[C@@H](NC(=O)CCOCCOCC[N+](C)(C)C)C(C)(C)SSC(C)(C)[C@@H](C(=O)N[C@@H](Cc2ccc(OCCN)cc2)C(=O)N[C@@H](Cc2ccc3ccccc3c2)C(=O)NC2(C(=O)N[C@@H](CCC(=O)O)C(=O)N[C@@H](CC(N)=O)C(=O)N[C@@H](Cc3cccnc3)C(=O)N(C)CC(N)=O)CCOCC2)NC1=O` [compound 443, cPEG3aCO-Pen(3)-N-T-7(3NAcPh)W-K(Ac)-Pen(3)-AEF-2Nal-THP-E-N-3Pya-Sar-CONH2] ({Me3N+(CH2)2O(CH2)2O(CH2)2CO}-[Pen]NT[Trp(7-(3-AcNH-Ph))]K(Ac)[Pen][AEF][2Nal][Thp]EN[3Pal][Sar]-NH2; disulfide 1-6), in data set [1], the IC50 is 2.1 nM. In addition, the EPSA in data set [2] was 191 A^2.

Regarding `Cc1cccc2c(C[C@@H]3NC(=O)[C@H]([C@@H](C)O)NC(=O)[C@H](CC(=O)N(C)C)NC(=O)[C@@H](NC(=O)CCCCC[N+](C)(C)C)C(C)(C)SSC(C)(C)[C@@H](C(=O)N[C@@H](Cc4ccc(OCCN(C)C)cc4)C(=O)N[C@@H](Cc4ccc5ccccc5c4)C(=O)NC4(C(=O)N[C@@H](CCC(=O)N(C)C)C(=O)N[C@@H](CC(N)=O)C(=O)N[C@@H](Cc5cccnc5)C(=O)N(C)CC(=O)N(C)C)CC[N+](C)(C)CC4)NC(=O)[C@H](CCC(=O)N(C)C)NC3=O)c[nH]c12` [compound 100, 5cpaCO-Pen(3)-N(N(Me)2)-T-7MeW-Q(N(Me)2)-Pen(3)-AEF(N(Me)2)-2Nal-Pip(NMe2)-Q(N(Me)2)-N-3Pya-Sar-CON(Me)2] ({Hexanoyl(6-NMe3+)}-[Pen]D(NMe2)T[Trp(7-Me)]E(NMe2)[Pen]Y(Me2NCH2CH2)[2Nal][X63]E(NMe2)N[3Pal][Sar]-NMe2; disulfide 1-6), the IC50 in data set [1] was 9.3 nM. The EPSA in data set [2] was 139 A^2.

In the case of `CC(=O)N(C)CCCC[C@@H]1NC(=O)[C@H](Cc2c[nH]c3c(C)cccc23)NC(=O)[C@H]([C@@H](C)O)NC(=O)[C@H](CC(=O)N(C)C)NC(=O)[C@@H](NC(=O)CCOCCOCC[N+](C)(C)C)C(C)(C)SSC(C)(C)[C@@H](C(=O)N[C@@H](Cc2ccc(OCC3C[N+](C)(C)CCO3)cc2)C(=O)N[C@@H](Cc2ccc3ccccc3c2)C(=O)NC2(C(=O)N[C@@H](CCCCN(C)C(C)=O)C(=O)N[C@@H](CC(N)=O)C(=O)N[C@@H](Cc3cccnc3)C(=O)N(C)CC(=O)N(C)C)CCOCC2)NC1=O` (stereo partly drawn) [compound 202, cPEG3aCO-Pen(3)-N(N(Me)2)-T-7MeW-K(NMeAc)-Pen(3)-DMPMF-2Nal-THP-K(NMeAc)-N-3Pya-Sar-CON(Me)2] ({Me3N+(CH2)2O(CH2)2O(CH2)2CO}-[Pen]D(NMe2)T[Trp(7-Me)][Lys(Me)](Ac)[Pen]Y(X18)[2Nal][Thp][Lys(Me)](Ac)N[3Pal][Sar]-NMe2; disulfide 1-6), the IC50 in data set [1] turned out to be 3.5 nM. The EPSA in data set [2] was 146 A^2.

As to `CC(=O)NCCCC[C@@H]1NC(=O)[C@H](Cc2c[nH]c3c(C)cccc23)NC(=O)[C@H]([C@@H](C)O)NC(=O)[C@H](CC(N)=O)NC(=O)[C@@H](NC(C)=O)C(C)(C)SSC(C)(C)[C@@H](C(=O)N[C@@H](Cc2ccc(OCCN)cc2)C(=O)N[C@@H](Cc2ccc3ccccc3c2)C(=O)NC2(C(=O)N[C@@H](CCC(=O)O)C(=O)N[C@@H](CC(N)=O)C(=O)N[C@@H](Cc3cccnc3)C(=O)N(C)CC(=O)N(C)C)CCOCC2)NC1=O` [compound 276] (Ac-[Pen]NT[Trp(7-Me)]K(Ac)[Pen][AEF][2Nal][Thp]EN[3Pal][Sar]-NMe2; disulfide 1-6 (inferred)), the IC50 in data set [1] stood at 55 nM.

As for `CC(=O)N(C)CCCCC(NC(=O)C1(NC(=O)[C@H](Cc2ccc3ccccc3c2)NC(=O)[C@H](Cc2ccc(OCCOCCOCC[N+](C)(C)C)cc2)NC(=O)[C@H]2NC(=O)[C@H](CCCCN(C)C(C)=O)NC(=O)[C@H](Cc3c[nH]c4c(C)cccc34)NC(=O)[C@H]([C@@H](C)O)NC(=O)[C@H](CC(=O)N(C)C)NC(=O)[C@@H](NC(=O)CCOCCOCC[N+](C)(C)C)C(C)(C)SSC2(C)C)CCOCC1)C(=O)N[C@@H](CC(N)=O)C(=O)N[C@@H](C)C(=O)N(C)CC(=O)N(C)C` (stereo partly shown) [compound 574, cPEG3aCO-Pen(3)-N(N(Me)2)-T-7MeW-K(NMeAc)-Pen(3)-APEG3F-2Nal-THP-K(NMeAc)-N-A-Sar-CON(Me)2] ({Me3N+(CH2)2O(CH2)2O(CH2)2CO}-[Pen]D(NMe2)T[Trp(7-Me)][Lys(Me)](Ac)[Pen]Y(CH2CH2OCH2CH2OCH2CH2NMe3+)[2Nal][Thp][ξLys(Me)](Ac)NA[Sar]-NMe2; disulfide 1-6), the IC50 in data set [1] was 1390 nM.

With `CCCCCCCCCCCC(=O)N[C@@H](CCC(=O)NCCOCCOCC(=O)NCCOCCOCC(=O)NCCCC[C@@H]1NC(=O)[C@@H](NC(=O)CCOCCOCC[N+](C)(C)C)C(C)(C)SSC(C)(C)[C@@H](C(=O)N[C@@H](Cc2ccc(OCCCCC[N+](C)(C)C)cc2)C(=O)N[C@@H](Cc2ccc3ccccc3c2)C(=O)NC2(C(=O)N[C@@H](CCCCN(C)C(C)=O)C(=O)N[C@@H](CC(N)=O)C(=O)N[C@@H](Cc3cccnc3)C(=O)N(C)CC(=O)N(C)C)CCOCC2)NC(=O)[C@H](CCCCN(C)C(C)=O)NC(=O)[C@H](Cc2c[nH]c3c(C)cccc23)NC(=O)[C@H]([C@@H](C)O)NC1=O)C(=O)O` [compound 387, cPEG3aCO-Pen(3)-K(PEG2PEG2gEC12)-T-7MeW-K(NMeAc)-Pen(3)-TMAPF-2Nal-THP-K(NMeAc)-N-3Pya-Sar-CON(Me)2] ({Me3N+(CH2)2O(CH2)2O(CH2)2CO}-[Pen]K([AEEA-AEEA-γGlu-Lauroyl])T[Trp(7-Me)][Lys(Me)](Ac)[Pen]Y(X3)[2Nal][Thp][Lys(Me)](Ac)N[3Pal][Sar]-NMe2; disulfide 1-6), the IC50 in data set [1] came to 12 nM.

Turning to `CC(=O)NCCCC[C@@H]1NC(=O)[C@H](Cc2c[nH]c3c(C)cccc23)NC(=O)[C@H]([C@@H](C)O)NC(=O)[C@H](CC(N)=O)NC(=O)[C@@H](NC(=O)[C@@H](CCCNC(=N)N)NC(C)=O)C(C)(C)SSC(C)(C)[C@@H](C(=O)N[C@@H](Cc2ccc(OCCN)cc2)C(=O)N[C@@H](Cc2ccc3ccccc3c2)C(=O)NC2(C(=O)N[C@@H](CCC(=O)O)C(=O)N[C@@H](CC(N)=O)C(=O)N(C)[C@@H](Cc3cccnc3)C(N)=O)CCOCC2)NC1=O` [compound 36] (Ac-[dR][Pen]NT[Trp(7-Me)]K(Ac)[Pen][AEF][2Nal][Thp]EN[NMe3Pal]-NH2; disulfide 2-7 (inferred)), in data set [1], the IC50 is 940 nM.

In the case of `CCCCCCCCCCCC(=O)N[C@@H](CCC(=O)NCCOCCOCC(=O)NCCOCCOCC(=O)NCCCC[C@@H](C(N)=O)N(C)C(=O)[C@H](Cc1cccnc1)NC(=O)[C@H](CC(N)=O)NC(=O)[C@H](CCCCN(C)C(C)=O)NC(=O)C1(NC(=O)[C@H](Cc2ccc3ccccc3c2)NC(=O)[C@H](Cc2ccc(OCCCCC[N+](C)(C)C)cc2)NC(=O)[C@H]2NC(=O)[C@H](CCCCNC(C)=O)NC(=O)[C@H](Cc3c[nH]c4c(C)cccc34)NC(=O)[C@H]([C@@H](C)O)NC(=O)[C@H](CC(=O)N(C)C)NC(=O)[C@@H](NC(=O)CCOCCOCC[N+](C)(C)C)C(C)(C)SSC2(C)C)CCOCC1)C(=O)O` [compound 313, cPEG3aCO-Pen(3)-N(N(Me)2)-T-7MeW-K(Ac)-Pen(3)-TMAPF-2Nal-THP-K(NMeaC)-N-3Pya-NMeK(PEG2PEG2gEC12)-CONH2] ({Me3N+(CH2)2O(CH2)2O(CH2)2CO}-[Pen]D(NMe2)T[Trp(7-Me)]K(Ac)[Pen]Y(X3)[2Nal][Thp][Lys(Me)](Ac)N[3Pal][NMeK]([AEEA-AEEA-γGlu-Lauroyl])-NH2; disulfide 1-6), the IC50 in data set [1] was found to be 4.2 nM.

Take `CC(=O)NCCCC[C@@H]1NC(=O)[C@H](Cc2c[nH]c3c(C)cccc23)NC(=O)[C@H]([C@@H](C)O)NC(=O)[C@H](CC(N)=O)NC(=O)[C@@H](NC(C)=O)C(C)(C)SSC(C)(C)[C@@H](C(=O)N[C@@H](Cc2ccc(OCCCC[N+](C)(C)C)cc2)C(=O)N[C@@H](Cc2ccc3ccccc3c2)C(=O)NC2(C(=O)N[C@@H](CCC(=O)O)C(=O)N[C@@H](CC(N)=O)C(=O)N[C@@H](Cc3cccnc3)C(=O)N(C)CC(N)=O)CCOCC2)NC1=O` [compound 550, MeCO-Pen(3)-N-T-7MeW-K(Ac)-Pen(3)-TMA4F-2Nal-THP-N-3Pya-Sar-CONH2]: in data set [1], the IC50 was found to be 5.5 nM.

For `CC(=O)NCCCC[C@@H]1NC(=O)[C@H](Cc2c[nH]c3c(-c4cccc(NC(C)=O)c4)cccc23)NC(=O)[C@H]([C@@H](C)O)NC(=O)[C@H](CC(N)=O)NC(=O)[C@@H](NC(=O)CCOCCOCC[N+](C)(C)C)C(C)(C)SSC(C)(C)[C@@H](C(=O)N[C@@H](Cc2ccc(OCCNC(=N)N)cc2)C(=O)N[C@@H](Cc2ccc3ccccc3c2)C(=O)NC2(C(=O)N[C@@H](CCCCN(C)C(C)=O)C(=O)N[C@@H](CC(N)=O)C(=O)N[C@@H](Cc3cncc(C)c3)C(=O)N(C)CC(N)=O)CCOCC2)NC1=O` [compound 481, cPEG3aCO-Pen(3)-N-T-7(3NAcPh)W-K(Ac)-Pen(3)-AEF(G)-2Nal-THP-K(NMeAc)-N-5MePyridinAla-Sar-CONH2], in data set [1], the IC50 amounted to 3.5 nM.
